Source: patent US11547681B2, “N-acylethanolamide derivatives and uses thereof” (ELIEM THERAPEUTICS, INC., priority 2016, dated 2023)

Assay: in vitro
Details: for Concentration, analyte PEA / % Remaining of Initial (n = 1) / Measured concentration of PEA (analyte) / % Remaining of Initial: 1 μM
Method in brief: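 Test article at 1 μM final was pre-equilibrated in liver S9 at 37° C before cofactor addition started the reaction. Samples were taken at 0–60 min and quenched in acidified acetonitrile. Prodrug and PEA were quantified by LC-MS/MS; percent remaining was relative to time 0, with half-life from single-phase exponential decay.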

[1] = male, CD-1, mouse, s9, Half-life
[2] = male, Sprague-Dawley, rat, 0 min
[3] = male, Sprague-Dawley, rat, 10 min
[4] = male, Sprague-Dawley, rat, 20 min
[5] = male, Sprague-Dawley, rat, 30 min
[6] = male, Sprague-Dawley, rat, 60 min
[7] = male, Sprague-Dawley, rat, s9, 0 h
[8] = male, Sprague-Dawley, rat, s9, 10 min
[9] = male, Sprague-Dawley, rat, s9, 20 min
[10] = male, Sprague-Dawley, rat, s9, 0.5 h
[11] = male, Sprague-Dawley, rat, s9, 1 h
[12] = male, Sprague-Dawley, rat, s9, Half-life

CCCCC/C=C\C/C=C\CCCCCCCC(=O)OCC(COC(=O)CCC(=O)OCCNC(=O)CCCCCCCCCCCCCCC)OC(=O)CCCCCCC/C=C\C/C=C\CCCCC (centres unmarked) [Compound I-13]
Concentration, analyte PEA (both, human, 0 min): 0 nM | Concentration, analyte PEA (both, human, 10 min): 0 nM | Concentration, analyte PEA (both, human, 20 min): 0 nM | Concentration, analyte PEA (both, human, 30 min): 0 nM | Concentration, analyte PEA (both, human, 60 min): 0 nM | % Remaining of Initial (n = 1) (both, human, s9, 0 h): 100% | % Remaining of Initial (n = 1) (both, human, s9, 10 min): 93% | % Remaining of Initial (n = 1) (both, human, s9, 20 min): 87% | % Remaining of Initial (n = 1) (both, human, s9, 0.5 h): 78% | % Remaining of Initial (n = 1) (both, human, s9, 1 h): 45% | half-life at 1 μM (both, human, s9, Half-life): 58 min | Concentration, analyte PEA (male, Beagle, dog, 0 min): 15 nM | Concentration, analyte PEA (male, Beagle, dog, 10 min): 25 nM | Concentration, analyte PEA (male, Beagle, dog, 20 min): 20 nM | Concentration, analyte PEA (male, Beagle, dog, 30 min): 24 nM | Concentration, analyte PEA (male, Beagle, dog, 60 min): 21 nM | % Remaining of Initial (n = 1) (male, Beagle, dog, s9, 0 h): 100% | % Remaining of Initial (n = 1) (male, Beagle, dog, s9, 10 min): 70% | % Remaining of Initial (n = 1) (male, Beagle, dog, s9, 20 min): 61% | % Remaining of Initial (n = 1) (male, Beagle, dog, s9, 0.5 h): 61% | % Remaining of Initial (n = 1) (male, Beagle, dog, s9, 1 h): 37% | Concentration, analyte PEA (male, CD-1, mouse, 0 min): 0 nM | Concentration, analyte PEA (male, CD-1, mouse, 10 min): 0 nM | Concentration, analyte PEA (male, CD-1, mouse, 20 min): 0 nM | Concentration, analyte PEA (male, CD-1, mouse, 30 min): 0 nM | Concentration, analyte PEA (male, CD-1, mouse, 60 min): 0 nM | % Remaining of Initial (n = 1) (male, CD-1, mouse, s9, 0 h): 100% | % Remaining of Initial (n = 1) (male, CD-1, mouse, s9, 10 min): 89% | % Remaining of Initial (n = 1) (male, CD-1, mouse, s9, 20 min): 90% | % Remaining of Initial (n = 1) (male, CD-1, mouse, s9, 0.5 h): 79% | % Remaining of Initial (n = 1) (male, CD-1, mouse, s9, 1 h): 78% | half-life at 1 μM [1]: > 60 min | Concentration, analyte PEA [2]: 0 nM | Concentration, analyte PEA [3]: 0 nM | Concentration, analyte PEA [4]: 0 nM | Concentration, analyte PEA [5]: 0 nM | Concentration, analyte PEA [6]: 0 nM | % Remaining of Initial (n = 1) [7]: 100% | % Remaining of Initial (n = 1) [8]: 76% | % Remaining of Initial (n = 1) [9]: 74% | % Remaining of Initial (n = 1) [10]: 59% | % Remaining of Initial (n = 1) [11]: 45% | half-life at 1 μM [12]: 50 min

CCCCCCCCCCCCCCCC(=O)NCCOC(=O)CCC(=O)OC(COC(=O)CCC)COC(=O)CCC [Compound I-16]
Measured concentration of PEA (analyte) (both, human, 0 min): 0.10 µM | Measured concentration of PEA (analyte) (both, human, 10 min): 0.46 µM | Measured concentration of PEA (analyte) (both, human, 20 min): 0.42 µM | Measured concentration of PEA (analyte) (both, human, 30 min): 0.39 µM | Measured concentration of PEA (analyte) (both, human, 60 min): 0.27 µM | % Remaining of Initial (both, human, s9, 0 h): 100% | % Remaining of Initial (both, human, s9, 10 min): 4.9% | % Remaining of Initial (both, human, s9, 20 min): 2.1% | % Remaining of Initial (both, human, s9, 0.5 h): <1.0% | % Remaining of Initial (both, human, s9, 1 h): <1.0% | half-life at 1 μM (both, human, s9, Half-life): < 10 min | Measured concentration of PEA (analyte) (male, Beagle, dog, 0 min): 0.053 µM | Measured concentration of PEA (analyte) (male, Beagle, dog, 10 min): 0.26 µM | Measured concentration of PEA (analyte) (male, Beagle, dog, 20 min): 0.33 µM | Measured concentration of PEA (analyte) (male, Beagle, dog, 30 min): 0.29 µM | Measured concentration of PEA (analyte) (male, Beagle, dog, 60 min): 0.23 µM | % Remaining of Initial (male, Beagle, dog, s9, 0 h): 100% | % Remaining of Initial (male, Beagle, dog, s9, 10 min): 2.1% | % Remaining of Initial (male, Beagle, dog, s9, 20 min): <1.0% | % Remaining of Initial (male, Beagle, dog, s9, 0.5 h): <1.0% | % Remaining of Initial (male, Beagle, dog, s9, 1 h): <1.0% | half-life at 1 μM (male, Beagle, dog, s9, Half-life): < 10 min | Measured concentration of PEA (analyte) (male, CD-1, mouse, 0 min): 0.33 µM | Measured concentration of PEA (analyte) (male, CD-1, mouse, 10 min): 0.78 µM | Measured concentration of PEA (analyte) (male, CD-1, mouse, 20 min): 0.68 µM | Measured concentration of PEA (analyte) (male, CD-1, mouse, 30 min): 0.59 µM | Measured concentration of PEA (analyte) (male, CD-1, mouse, 60 min): 0.43 µM | % Remaining of Initial (male, CD-1, mouse, s9, 0 h): 100% | % Remaining of Initial (male, CD-1, mouse, s9, 10 min): 3.7% | % Remaining of Initial (male, CD-1, mouse, s9, 20 min): <1.0% | % Remaining of Initial (male, CD-1, mouse, s9, 0.5 h): <1.0% | % Remaining of Initial (male, CD-1, mouse, s9, 1 h): <1.0% | half-life at 1 μM [1]: < 10 min | Measured concentration of PEA (analyte) [2]: 0.050 µM | Measured concentration of PEA (analyte) [3]: 0.13 µM | Measured concentration of PEA (analyte) [4]: 0.13 µM | Measured concentration of PEA (analyte) [5]: 0.058 µM | Measured concentration of PEA (analyte) [6]: 0.020 µM | % Remaining of Initial [7]: 100% | % Remaining of Initial [8]: 3.0% | % Remaining of Initial [9]: <1.0% | % Remaining of Initial [10]: <1.0% | % Remaining of Initial [11]: <1.0% | half-life at 1 μM [12]: < 10 min | half-life at 1 μM (male, Sprague-Dawley, rat, s9, Half-life, calculated value in parentheses): 2 min

C[C@]12CC[C@H]3[C@@H](CCC4=CC(=O)CC[C@@]43C)[C@@H]1CC[C@@H]2O [Testosterone, testosterone, reference compound]
Half-life (Control Compound, Human liver S9): 28 min | Half-life (Control Compound, Mouse liver S9): 9.0 min | CLint (Control Compound, Rat liver S9): 0.260 ml/min/mg protein | Half-life (Human liver S9): 28 min | half-life (male, Beagle, s9): 25 min | Half-life (male, CD-1, mouse, s9): 17 min | half-life (male, CD-1, mouse, s9): 8.7 min | half-life (male, Sprague-Dawley, rat, s9, Half-life, Control Compound, Rat liver S9): 2.7 min | half-life at 1 μM (male, Sprague-Dawley, rat, s9, Half-life, Rat liver S9): 2.7 min | half-life (male, Sprague-Dawley, rat, s9, Half-life, control compound, rat liver S9): 2.7 min
